Assay results reported in patent US8883797B2, “Metalloenzyme inhibitor compounds” (Viamet Pharmaceuticals, Inc., priority 2011, dated 2014).
In brackets after ≈: the same amount, converted by molar mass.

Key:
CYP3A4 = CYP3A4 (Homo sapiens (Human), UniProt P08684); assay: biochemical
Description: (§1) B Inhibition of Liver Cytochrome P450 Enzymes
(§2) Solutions of each test compound were separately prepared at concentrations of 20000, 6000, 2000, 600, 200, and 60 μM by serial dilution with DMSO:MeCN (50:50 v/v). The individual test compound solutions were then diluted 20-fold with DMSO:MeCN:deionized water (5:5:180 v/v/v) to concentrations of 1000, 300, 100, 30, 10, and 3 μM. Mixtures of isozyme inhibitors (sulfaphenazole, tranylcypromine, and ketoconazole as specific inhibitors of isozymes 2C9, 2C19, and 3A4, respectively) were prepared containing each inhibitor at concentrations of 6000, 2000, 600, 200, 60, 20, 6, and 2 μM by serial dilution with DMSO:ACN (50:50 v/v). […]
(§3) Pooled human liver microsome suspension (20 mg/mL) was diluted with phosphate buffer to obtain a 5 mg/mL suspension. […] Separate stock solutions of each substrate were prepared in DMSO:MeCN (50:50 v/v), mixed, and diluted in phosphate buffer to obtain a single solution containing each substrate at five times its experimentally determined Km concentration. […]
(§4) Substrate solution and microsome suspension were combined in a 1:1 volume ratio, mixed, and distributed to reaction wells of a PCR plate. […] A portion of the supernatant was analyzed by gradient reverse-phase HPLC with detection by electrospray ionization triple quadrupole mass spectrometry in the positive ion mode. […]

C. albicans = assay: Minimum Inhibitory Concentration (MIC) (C. albicans), CLSI M27-A2; format: cell-based; details: Candida albicans; about 50% growth reduction; approx. 48 h at 35 °C
Description: A. Minimum Inhibitory Concentration (MIC) (C. albicans) Compounds of the present disclosure were assessed for their ability to inhibit the growth of common strains of fungus, C. albicans using a standardized procedure (CLSI M27-A2). Stock solutions of the test compounds and standards were prepared in DMSO at 1,600 μg/mL (C. albicans). Eleven, serial, one-half dilutions of compounds were prepared in 96-well plates in RPMI+MOPS. The assay concentration ranges were 8-0.001 μg/mL (C. albicans). Cell suspensions of C. albicans were prepared and added to each well at concentrations of approximately 3.7×10^3 colony-forming-units per milliliter (cfu/mL). All testing was in duplicate. The inoculated plates were incubated for approximately 48 h at 35±1° C. At the completion of incubation the wells of each plate were evaluated visually for the presence of fungal growth. […] For QC purposes C. krusei isolate ATCC 6258 (4.0×10^3 cfu/mL) was included in the VOR assay.

CYP2C19 = CYP2C19 (Homo sapiens (Human), UniProt P33261); assay: biochemical
Description: as §1, §2, §3, §4

CYP2C9 = CYP2C9 (Homo sapiens (Human), UniProt P11712); assay: biochemical
Description: as §1, §2, §3, §4

[1] = test system: Puccinia recondita tritici; assay: Fungicidal activity vs. leaf rust on wheat plants (PUCCRT); format: in vivo, Puccinia recondita tritici=Puccinia triticina; details: 50 ppm spray on wheat (variety Yuma); inoculated the following day; severity evaluated 7-9 days later
Source text: D. Evaluation of Fungicidal Activity Vs. Leaf Rust (Causal Agent Puccinia recondita tritici=Puccinia triticina; Bayer Code PUCCRT).
Each pot contained 3-8 seedlings. These plants were sprayed until wet with the formulated test compounds. The compounds were formulated at 50 ppm in 10 vol. % acetone plus 90 vol. % Triton X water (deionized water 99.99 wt %+0.01 wt % Triton X100), giving a “formulated test compound.” Formulated test compounds were applied to plants using a turn table sprayer fitted with two opposing air atomization nozzles which delivered approximately 1500 L/ha of spray volume. On the following day, the leaves were inoculated with an aqueous spore suspension of Puccinia recondita tritici and the plants were kept in high humidity overnight to permit spores to germinate and infect the leaf. The plants were then transferred to a greenhouse until disease developed on untreated control plants. Disease severity was evaluated 7-9 days later, depending on the speed of disease development. Compounds 4(−), 9(+), 11, 13, 18, 21, 25, 26, 27, 28, 32, 34, 37, 38, 39, 42, 43, 48, 51, 52, 56, 57, and 59 were selected for testing against PUCCRT at 50 ppm. Compounds that provided >80% disease control at 50 ppm included 4(−), 9(+), 11, 13, 18, 21, 25, 26, 27, 28, 32, 34, 37, 38, 39, 42, 43, 48, 52, 56, and 57.

[2] = test system: Septoria tritici (ATCC 26517); assay: Minimum Inhibitory Concentration (MIC) (Septoria tritici), CLSI-based microdilution; format: cell-based; details: Zymoseptoria tritici, ATCC26517, 168 h; S. tritici ATCC 26517; 50% growth reduction; 7 days at 22 °C; read-out: Septoria Rating (MIC)
Description: C. Minimum Inhibitory Concentration (MIC) (Septoria tritici) Compounds of the present disclosure were assessed for their ability to inhibit the growth of a common strain of the fungal plant pathogen Septoria tritici (ATCC 26517) using a procedure based on a Clinical and Laboratory Standards Institute (CLSI) microdilution assay protocol for filamentous fungi. Stock solutions of the test compounds and standards were prepared in DMSO at 6400 μg/mL. Each stock solution was used to prepare a 2-fold dilution series ranging from 16 to 0.016 μg/mL (total of 11 compound concentrations) in RPMI-1640 (Roswell Park Memorial Institute) medium containing 3-(N-morpholino)propanesulfonic acid (MOPS) buffer and 2% DMSO. A 100 μL aliquot of the dilutions was added to columns 1 (16 μg/mL compound) through 11 (0.016 μg/mL compound) of a 96-well microtiter plate. This format was replicated in a second row of the microtiter plate. Thus, each microtiter plate could include 11 concentrations of four test or control compounds replicated twice. A 100 μL aliquot of RPMI-1640/MOPS/2% DMSO medium was added to column 12 (no compound control) of the microtiter plate. A fresh culture of S. tritici was used to prepare a solution of approximately 5×10^4 colony-forming units per milliliter (cfu/mL) in RPMI/MOPS medium without DMSO. A 100 μL aliquot of this solution was added to all 96 wells in the microtiter plate. […] The assay plates were incubated at 22° C. for seven days in the dark without shaking. […] In each case of Table 3 the rating scale is as follows: […]

CYP2C9, sequence (P11712 whole entry): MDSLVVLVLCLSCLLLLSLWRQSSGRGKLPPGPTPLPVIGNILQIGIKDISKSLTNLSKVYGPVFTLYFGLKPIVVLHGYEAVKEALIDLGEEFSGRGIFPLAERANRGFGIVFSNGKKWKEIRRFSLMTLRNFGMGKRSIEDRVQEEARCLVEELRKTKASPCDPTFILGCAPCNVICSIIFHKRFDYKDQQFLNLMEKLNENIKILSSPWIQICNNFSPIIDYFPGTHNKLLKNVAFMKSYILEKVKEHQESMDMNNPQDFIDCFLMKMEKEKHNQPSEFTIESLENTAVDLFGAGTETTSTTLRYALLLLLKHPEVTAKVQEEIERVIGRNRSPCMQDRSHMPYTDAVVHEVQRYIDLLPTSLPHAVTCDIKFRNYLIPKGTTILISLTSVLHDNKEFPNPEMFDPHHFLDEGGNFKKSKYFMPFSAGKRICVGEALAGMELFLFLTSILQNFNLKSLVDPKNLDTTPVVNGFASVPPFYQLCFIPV
CYP2C19, sequence (P33261 whole entry): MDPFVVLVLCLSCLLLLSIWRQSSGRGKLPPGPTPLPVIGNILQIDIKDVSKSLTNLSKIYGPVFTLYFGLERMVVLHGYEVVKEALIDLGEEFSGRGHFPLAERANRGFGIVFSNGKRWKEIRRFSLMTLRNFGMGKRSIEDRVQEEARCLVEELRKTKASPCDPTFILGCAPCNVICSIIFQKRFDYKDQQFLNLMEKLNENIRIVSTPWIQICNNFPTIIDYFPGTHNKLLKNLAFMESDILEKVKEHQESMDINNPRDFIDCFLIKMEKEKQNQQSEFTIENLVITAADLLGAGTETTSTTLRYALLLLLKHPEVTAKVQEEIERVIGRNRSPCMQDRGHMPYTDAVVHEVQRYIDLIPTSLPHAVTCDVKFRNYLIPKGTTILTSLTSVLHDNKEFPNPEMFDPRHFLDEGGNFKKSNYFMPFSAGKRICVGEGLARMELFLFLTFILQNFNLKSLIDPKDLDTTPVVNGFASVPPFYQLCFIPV
CYP3A4, sequence (P08684 whole entry): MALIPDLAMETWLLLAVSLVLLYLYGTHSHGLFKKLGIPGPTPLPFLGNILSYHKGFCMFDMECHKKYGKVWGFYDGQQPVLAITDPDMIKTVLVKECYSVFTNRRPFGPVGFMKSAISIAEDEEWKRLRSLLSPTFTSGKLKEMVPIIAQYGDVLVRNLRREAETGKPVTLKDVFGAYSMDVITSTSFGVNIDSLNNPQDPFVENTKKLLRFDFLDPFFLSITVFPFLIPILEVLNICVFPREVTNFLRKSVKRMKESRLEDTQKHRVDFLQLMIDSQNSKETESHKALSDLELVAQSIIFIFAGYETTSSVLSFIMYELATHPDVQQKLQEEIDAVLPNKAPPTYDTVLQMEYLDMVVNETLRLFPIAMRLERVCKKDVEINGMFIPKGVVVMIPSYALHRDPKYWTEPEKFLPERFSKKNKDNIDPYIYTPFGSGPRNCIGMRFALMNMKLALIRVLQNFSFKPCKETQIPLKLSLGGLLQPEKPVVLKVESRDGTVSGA

Row | SMILES | MIC [2] [µg/mL] | IC50 (CYP3A4) [µM] | MIC (C. albicans) [µg/mL] | IC50 (CYP2C19) [µM] | IC50 (CYP2C9) [µM] | disease control [1] [%]
1 | OC(Cn1cnnn1)(c1ccc(F)cc1F)C(F)(F)c1ccc2cc(Br)ccc2n1 (stereo not shown) [Compound 9, 1-(6-Bromoquinolin-2-yl)-2-(2,4-difluorophenyl)-1,1-difluoro-3-(1H-tetrazol-1-yl)propan-2-ol] |  | 11 | 0.016 (≈ 0.0332 µM) | 12 | 13 | 
2 | OC(Cn1cnnn1)(c1ccc(F)cc1F)C(F)(F)c1cnc2cc(Cl)ccc2n1 (stereo not shown) [Compound 10, 1-(6-Chloroquinoxalin-2-yl)-2-(2,4-difluorophenyl)-1,1-difluoro-3-(1H-tetrazol-1-yl)propan-2-ol] |  | 45 | 0.125 (≈ 0.285 µM) | 29 | 42 | 
3 | OC(Cn1cnnn1)(c1ccc(F)cc1F)C(F)(F)c1ccc2cc(C(F)F)ccc2n1 (stereo not shown) [Compound 25, 1-(6-(Difluoromethyl)quinolin-2-yl)-2-(2,4-difluorophenyl)-1,1-difluoro-3-(1H-tetrazol-1-yl)propan-2-ol] | ≤ 0.5 |  |  |  |  | > 80
4 | Cc1ccc2nc(C(F)(F)C(O)(Cn3cnnn3)c3ccc(F)cc3F)ccc2c1 (stereo not shown) [Compound 26, 2-(2,4-Difluorophenyl)-1,1-difluoro-1-(6-methylquinolin-2-yl)-3-(1H-tetrazol-1-yl)propan-2-ol] | ≤ 0.5 |  |  |  |  | > 80
5 | OC(Cn1cnnn1)(c1ccc(F)cc1F)C(F)(F)c1nc2ccc(Br)cc2s1 (stereo not shown) [Compound 27, 1-(6-Bromobenzo[d]thiazol-2-yl)-2-(2,4-difluorophenyl)-1,1-difluoro-3-(1H-tetrazol-1-yl)propan-2-ol] | ≤ 0.5 |  |  |  |  | > 80
6 | OC(Cn1ncnn1)(c1cc(F)ccc1F)C(F)(F)c1ccc2cc(Cl)ccc2n1 (stereo not shown) [Compound 28, 1-(6-Chloroquinolin-2-yl)-2-(2,5-difluorophenyl)-1,1-difluoro-3-(2H-tetrazol-2-yl)propan-2-ol] | ≤ 0.5 |  |  |  |  | > 80
7 | OC(Cn1cnnn1)(c1ccc(F)cc1)C(F)(F)c1ccc2cc(Cl)ccc2n1 (stereo not shown) [Compound 32, 1-(6-Chloroquinolin-2-yl)-1,1-difluoro-2-(4-fluorophenyl)-3-(1H-tetrazol-1-yl)propan-2-ol] | ≤ 0.5 |  |  |  |  | > 80
8 | OC(Cn1cnnn1)(c1ccc(Cl)cc1F)C(F)(F)c1cnc2cc(Cl)ccc2n1 (stereo not shown) [Compound 34, 2-(4-Chloro-2-fluorophenyl)-1-(6-chloroquinoxalin-2-yl)-1,1-difluoro-3-(1H-tetrazol-1-yl)propan-2-ol] | ≤ 0.5 |  |  |  |  | > 80
9 | OC(Cn1cncn1)(Cn1cncn1)c1ccc(F)cc1F [Fluconazole, reference compound] |  |  | 0.5 (≈ 1.63 µM) |  |  | 
10 | C[C@@H](c1ncncc1F)[C@](O)(Cn1cncn1)c1ccc(F)cc1F [Voriconazole, reference compound] |  |  | 0.016 (≈ 0.0458 µM) |  |  | 

The next lines start with results.

Row | MIC [2] [µg/mL] | SMILES | IC50 (CYP3A4) [µM] | MIC (C. albicans) [µg/mL] | IC50 (CYP2C19) [µM] | IC50 (CYP2C9) [µM] | disease control [1] [%]
11 | ≤ 0.5 | OC(Cn1cnnn1)(c1ccc(F)cc1F)C(F)(F)c1cc2ccc(Cl)cc2cn1 (stereo not shown) [Compound 37, 1-(7-Chloroisoquinolin-3-yl)-2-(2,4-difluorophenyl)-1,1-difluoro-3-(1H-tetrazol-1-yl)propan-2-ol] |  |  |  |  | > 80
12 | ≤ 0.5 | OC(Cn1cnnn1)(c1ccc(F)cc1F)C(F)(F)c1cnc2cc(Br)ccc2n1 (stereo not shown) [Compound 38, 1-(6-Bromoquinoxalin-2-yl)-2-(2,4-difluorophenyl)-1,1-difluoro-3-(1H-tetrazol-1-yl)propan-2-ol] |  |  |  |  | > 80
13 | ≤ 0.5 | OC(Cn1cnnn1)(c1ccc(F)cc1F)C(F)(F)c1cnc(-c2ccc(OC(F)F)cc2)cn1 (stereo not shown) [Compound 39, 1-(5-(4-(Difluoromethoxy)phenyl)pyrazin-2-yl)-2-(2,4-difluorophenyl)-1,1-difluoro-3-(1H-tetrazol-1-yl)propan-2-ol] |  |  |  |  | > 80
14 | ≤ 0.5 | OC(Cn1cnnn1)(c1ccc(F)cc1F)C(F)(F)c1cnc(-c2ccc(OC(F)(F)F)cc2)cn1 (stereo not shown) [Compound 42, 2-(2,4-Difluorophenyl)-1,1-difluoro-3-(1H-tetrazol-1-yl)-1-(5-(4-(trifluoromethoxy)phenyl)pyrazin-2-yl)propan-2-ol] |  |  |  |  | > 80
15 | ≤ 0.5 | OC(Cn1cnnn1)(c1ccc(F)cc1F)C(F)(F)c1cnc(-c2ccc(Br)cc2)cn1 (stereo not shown) [Compound 43, 1-(5-(4-Bromophenyl)pyrazin-2-yl)-2-(2,4-difluorophenyl)-1,1-difluoro-3-(1H-tetrazol-1-yl)propan-2-ol] |  |  |  |  | > 80
16 | ≤ 0.5 | COc1ccc(-c2cnc(C(F)(F)C(O)(Cn3cnnn3)c3ccc(F)cc3F)cn2)cc1 (stereo not shown) [Compound 48, 2-(2,4-Difluorophenyl)-1,1-difluoro-1-(5-(4-methoxyphenyl)pyrazin-2-yl)-3-(1H-tetrazol-1-yl)propan-2-ol] |  |  |  |  | > 80
17 | ≤ 0.5 | OC(Cn1cnnn1)(c1ccc(F)cc1F)C(F)(F)c1cnc(CCc2ccc(F)cc2)cn1 (stereo not shown) [Compound 52, 2-(2,4-Difluorophenyl)-1,1-difluoro-1-(5-(4-fluorophenethyl)pyrazin-2-yl)-3-(1H-tetrazol-1-yl)propan-2-ol] |  |  |  |  | > 80
18 | 0.5 to 1.5 (≈ 1 to 3.01 µM) | OC(Cn1cnnn1)(c1ccc(F)cc1F)C(F)(F)c1ccc(-c2ccc(C(F)(F)F)cc2)nn1 (stereo not shown) [Compound 56, 2-(2,4-Difluorophenyl)-1,1-difluoro-3-(1H-tetrazol-1-yl)-1-(6-(4-(trifluoromethyl)phenyl)pyridazin-3-yl)propan-2-ol] |  |  |  |  | > 80
19 | ≤ 0.5 | OC(Cn1cnnn1)(c1ccc(F)cc1F)C(F)(F)c1ccc(-c2ccc(OC(F)(F)F)cc2)nn1 (stereo not shown) [Compound 57, 2-(2,4-Difluorophenyl)-1,1-difluoro-3-(1H-tetrazol-1-yl)-1-(6-(4-(trifluoromethoxy)phenyl)pyridazin-3-yl)propan-2-ol] |  |  |  |  | > 80
